# Laboratory results reported in publication PMC8949503, “Radiosynthesis and Preclinical Evaluation of Bispecific PSMA/FAP Heterodimers for Tumor Imaging” (Pharmaceuticals, 2022).
# Columns and labels:
# [1] = n-octanol/PBS partition coefficient (logD); format: physicochemical; conditions: PBS pH 7.4, ambient temperature
# Method: An aliquot (74 kBq) of [^18F]AlF-PSMA-FAPI-01 or [^18F]AlF-PSMA-FAPI-02 was added to a centrifuge tube containing a mixture of phosphate-buffered solution (PBS, pH 7.4, 5.0 mL) and n-octanol (5.0 mL). The mixture was vigorously vortexed at ambient temperature for 5 min and then centrifuged (10,000 rpm, 5 min). Three samples (each 100 µL) from each phase underwent radioactivity measurement using a γ-counter (CAPRAC-R, Capintec, Inc., Ramsey, NJ, USA).
# A549-FAP cells [2] = assay: cell uptake and blocking study in A549-FAP cells; format: cell-based; conditions: for cell uptake, blocked: +DOTA-FAPI-04 (2.3 μM)
# Method: PSMA-positive 22Rv1 cells (purchased from Institute of Biochemistry and Cell Biology, Shanghai, China) and stably FAP-transfected A549-FAP cells (acquired using lentiviral infection) were used for the cell-based experiments. The 22Rv1 cells were cultivated in RPMI-1640 medium (Gibco) at 37 °C/5% carbon dioxide, while the A549-FAP cells were cultivated in DMEM medium. Both media were supplemented with 10% heat-inactivated fetal bovine serum (FBS) and 1% penicillin/streptomycin (Gibco). Puromycin (1 µg/mL) was also added to the media to maintain FAP expression.
# Cells were seeded in 12-well plates 2 days in advance to achieve a final confluence of approximately 80–90% (4–5 × 10^5 cells/well). The medium was displaced by 1 mL fresh medium without FBS. The method of cell studies was similar to a method reported previously. For the competitive binding experiments, cells were incubated with the known radiotracers ([^18F]FAPI-42 for the FAP receptor and [^18F]AlF-PSMA-BCH for PSMA) in the presence of 7 different concentrations (10^−5–10^−11 M) of the corresponding unlabeled heterodimers or corresponding monomer and incubated for 60 min at 37 °C. In all experiments, the cells were washed twice with PBS, lysed with 1 M NaOH, and counted using a γ-counter. IC50 values were calculated by fitting the data using a nonlinear regression algorithm (implemented in SPSS). For the radioligand binding studies, the cells were incubated for 5, 15, 30, 60, or 120 min at 37 °C after the addition of the heterodimer or corresponding monomeric radiotracer radiotracers. The blocking experiments were determined by adding the corresponding competitors (4.4 μM 2-PMPA for 22Rv1 cells and 2.3 μM DOTA-FAPI-04 for A549-FAP cells). Radioactivity was measured using a γ-counter, normalized to 1 million cells (1 mio cells), and calculated as the percentage of the applied dose (%ID/1 mio cells). For the internalization experiments, the cells were incubated with the radiolabeled compound for 60 min, washed twice with 1 mL PBS, and then incubated for 10 min with 1 mL glycine HCl (1 M, pH 2.2) to detach the extracellular bound tracer. Next, the cells were washed with PBS (2.0 mL) and lysed with 1 M NaOH (1.5 mL). The radioactivity of the acid wash solution (extracellularly bound tracer) and cell lysate (internalized tracer) was assessed separately using a γ-counter. For the efflux experiments, the radioactive medium was removed after 60 min incubation and replaced with non-radioactive medium. At predetermined time points of 15, 30, 60, and 120 min, the cells were washed with 1.0 mL PBS three times and then lysed. The radioactivity of the remaining cells was assessed using a γ-counter. Each experiment was conducted three times with three or four replicates per independent experiment.
# [3] = tested on: A549-FAP tumor-bearing nude mice; assay: tissue biodistribution and blocking in A549-FAP tumor-bearing nude mice; format: in vivo; conditions: 1 h p.i.; for A549-FAP tumor uptake, Blocked / Blood uptake, Blocked / Bone uptake, Blocked / Brain uptake, Blocked / Gall bladder uptake, Blocked / Heart uptake, Blocked / Kidney uptake, Blocked / Liver uptake, Blocked / Lung uptake, Blocked / Muscle uptake, Blocked / Small intestine uptake, Blocked / Spleen uptake, Blocked / Stomach uptake, Blocked: co-injected DOTA-FAPI-04 3 mg/kg
# Method: (§1) For the biodistribution and micro-PET imaging studies, male BALB/c nude mice (6–8 weeks) were subcutaneously inoculated with 1 × 10^7 22Rv1 or 5 × 10^6 A549-FAP cells in the right shoulder. Mice were imaged or used in the biodistribution studies when the tumor reached 5–10 mm in diameter.
# (§2) Mice bearing 22Rv1 or A549-FAP (n = 4 in each group) tumors were euthanized 60 min after intravenous administration of each tracer (740–1480 KBq/mouse). In the blocking group, the same experiment was conducted by co-injecting 50 μg of 2-PMPA for mice bearing 22Rv1 tumors or 50 μg of DOTA-FAPI-04 for mice bearing A549-FAP tumors. The organs of interest and tumors were quickly dissected and weighed. Radioactivity was assessed using a γ-counter and calculated as the percentage injected dose per gram (%ID/g).
# [4] = tested on: 22Rv1 tumor-bearing nude mice; assay: tissue biodistribution and blocking in 22Rv1 tumor-bearing nude mice; format: in vivo; conditions: 1 h p.i.; for 22Rv1 tumor* uptake, Blocked / Kidney* uptake, Blocked: co-injected 2-PMPA 3 mg/kg
# Method: as §1, §2
# [5] = tested on: A549-FAP tumor xenografts; assay: dynamic micro-PET imaging in A549-FAP tumor xenografts; format: in vivo; conditions: A549-FAP tumor-bearing nude mice, up to 2 h p.i.
# Method: as §1
# Mice bearing xenografted 22Rv1 or A549FAP tumors (n = 3 per group) were anesthetized and placed in the prone position in a micro-PET scanner (Siemens, Erlangen, Germany). Dynamic PET/CT images were acquired 2 h post-injection (p.i.) with the radiotracer (5.55–11.1 MBq). The blocking experiments were performed by co-injecting 3 mg/kg of 2-PMPA for mice bearing 22Rv1 tumors or 3 mg/kg of DOTA-FAPI-04 for mice bearing A549-FAP tumors. The images were reconstructed using a three-dimensional ordered-subset expectation maximum algorithm and converted to %ID/g. Attenuation correction was performed using the unenhanced low-dose CT data. For data analysis, the regions of interest (ROIs) were manually drawn over the tumors and major organs on decay-corrected whole-body coronal images obtained using Inevon Research Workplace 4.1 software.
# A549-FAP cells [6] = assay: efflux in A549-FAP cells; format: cell-based; conditions: 2 h incubation
# Method: (§3) Cells were seeded in 12-well plates 2 days in advance to achieve a final confluence of approximately 80–90% (4–5 × 10^5 cells/well). The medium was displaced by 1 mL fresh medium without FBS. The method of cell studies was similar to a method reported previously. For the competitive binding experiments, cells were incubated with the known radiotracers ([^18F]FAPI-42 for the FAP receptor and [^18F]AlF-PSMA-BCH for PSMA) in the presence of 7 different concentrations (10^−5–10^−11 M) of the corresponding unlabeled heterodimers or corresponding monomer and incubated for 60 min at 37 °C. In all experiments, the cells were washed twice with PBS, lysed with 1 M NaOH, and counted using a γ-counter. IC50 values were calculated by fitting the data using a nonlinear regression algorithm (implemented in SPSS). […] The blocking experiments were determined by adding the corresponding competitors (4.4 μM 2-PMPA for 22Rv1 cells and 2.3 μM DOTA-FAPI-04 for A549-FAP cells). Radioactivity was measured using a γ-counter, normalized to 1 million cells (1 mio cells), and calculated as the percentage of the applied dose (%ID/1 mio cells). […] The radioactivity of the acid wash solution (extracellularly bound tracer) and cell lysate (internalized tracer) was assessed separately using a γ-counter. […] The radioactivity of the remaining cells was assessed using a γ-counter. […]
# 22Rv1 cells = assay: efflux in 22Rv1 cells; format: cell-based; conditions: 2 h incubation
# Method: as §3
smiles,measurement,setting,value
N#C[C@@H]1CC(F)(F)CN1C(=O)CNC(=O)c1ccnc2ccc(OCCCC(=O)NCCCC[C@H](NC(=O)CN3CCN4CCN(CC3)CC(=O)[O][Al]([18F])[O]C(=O)C4)C(=O)NCC3CCC(C(=O)N[C@H](Cc4ccc5ccccc5c4)C(=O)NCCCC[C@H](NC(=O)N[C@@H](CCC(=O)O)C(=O)O)C(=O)O)CC3)cc12 (some centres unmarked) [[^18F]AlF-PSMA-FAPI-01],n-octanol/PBS distribution coefficient (logD),[1],−2.74 ± 0.02
same,cell uptake,A549-FAP cells [2]; 5 min,8.15 ± 0.31 % ID/1 million cells
same,"cell uptake, blocked",A549-FAP cells [2]; 5 min,0.67 ± 0.07 % ID/1 million cells
same,cell uptake,A549-FAP cells [2]; 15 min,16.57 ± 0.98 % ID/1 million cells
same,"cell uptake, blocked",A549-FAP cells [2]; 15 min,0.71 ± 0.09 % ID/1 million cells
same,cell uptake,A549-FAP cells [2]; 30 min,23.73 ± 0.33 % ID/1 million cells
same,"cell uptake, blocked",A549-FAP cells [2]; 30 min,0.77 ± 0.01 % ID/1 million cells
same,cell uptake,A549-FAP cells [2]; 60 min,30.36 ± 3.53 % ID/1 million cells
same,"cell uptake, blocked",A549-FAP cells [2]; 60 min,0.83 ± 0.09 % ID/1 million cells
same,cell uptake,A549-FAP cells [2]; 120 min,28.23 ± 2.97 % ID/1 million cells
same,"cell uptake, blocked",A549-FAP cells [2]; 120 min,1.16 ± 0.06 % ID/1 million cells
same,A549-FAP tumor uptake,[3],6.40 ± 0.32 %ID/g
same,Blood uptake,[3],2.36 ± 0.60 %ID/g
same,Bone uptake,[3],4.09 ± 0.76 %ID/g
same,Brain uptake,[3],0.16 ± 0.03 %ID/g
same,Gall bladder uptake,[3],2.02 ± 0.40 %ID/g
same,Heart uptake,[3],1.56 ± 0.14 %ID/g
same,Kidney uptake,[3],23.88 ± 3.01 %ID/g
same,Liver uptake,[3],1.38 ± 0.11 %ID/g
same,Lung uptake,[3],1.82 ± 0.18 %ID/g
same,Muscle uptake,[3],2.18 ± 0.48 %ID/g
same,Small intestine uptake,[3],1.23 ± 0.21 %ID/g
same,Spleen uptake,[3],0.99 ± 0.17 %ID/g
same,Stomach uptake,[3],1.03 ± 0.13 %ID/g
same,"A549-FAP tumor uptake, Blocked",[3],1.38 ± 0.77 %ID/g
same,"Blood uptake, Blocked",[3],0.88 ± 0.62 %ID/g
same,"Bone uptake, Blocked",[3],1.53 ± 0.21 %ID/g
same,"Brain uptake, Blocked",[3],0.09 ± 0.03 %ID/g
same,"Gall bladder uptake, Blocked",[3],1.67 ± 0.32 %ID/g
same,"Heart uptake, Blocked",[3],0.41 ± 0.02 %ID/g
same,"Kidney uptake, Blocked",[3],28.65 ± 6.05 %ID/g
same,"Liver uptake, Blocked",[3],0.79 ± 0.37 %ID/g
same,"Lung uptake, Blocked",[3],1.66 ± 0.33 %ID/g
same,"Muscle uptake, Blocked",[3],0.32 ± 0.05 %ID/g
same,"Small intestine uptake, Blocked",[3],1.04 ± 0.53 %ID/g
same,"Spleen uptake, Blocked",[3],0.67 ± 0.20 %ID/g
same,"Stomach uptake, Blocked",[3],0.91 ± 0.43 %ID/g
same,22Rv1 tumor* uptake,[4],12.37 ± 0.40 %ID/g
same,Kidney* uptake,[4],23.4 ± 9.22 %ID/g
same,"22Rv1 tumor* uptake, Blocked",[4],5.03 ± 0.75 %ID/g
same,"Kidney* uptake, Blocked",[4],2.85 ± 0.38 %ID/g
same,time–activity curves (micro-PET),[5],"rapid uptake and excellent retention in tumors, as well as rapid clearance from non-target organs via the kidneys"
N#C[C@@H]1CC(F)(F)CN1C(=O)CNC(=O)c1ccnc2ccc(OCCCN3CCN(C(=O)CCC(=O)NCCCC[C@H](NC(=O)CN4CCN5CCN(CC4)CC(=O)[O][Al]([18F])[O]C(=O)C5)C(=O)NC[C@H]4CC[C@H](C(=O)N[C@H](Cc5ccc6ccccc6c5)C(=O)NCCCC[C@H](NC(=O)N[C@@H](CCC(=O)O)C(=O)O)C(=O)O)CC4)CC3)cc12 [[^18F]AlF-PSMA-FAPI-02],n-octanol/PBS distribution coefficient (logD),[1],−2.04 ± 0.04
same,cell uptake,A549-FAP cells [2]; 5 min,11.66 ± 0.39 % ID/1 million cells
same,"cell uptake, blocked",A549-FAP cells [2]; 5 min,1.28 ± 0.08 % ID/1 million cells
same,cell uptake,A549-FAP cells [2]; 15 min,17.03 ± 0.85 % ID/1 million cells
same,"cell uptake, blocked",A549-FAP cells [2]; 15 min,1.29 ± 0.38 % ID/1 million cells
same,cell uptake,A549-FAP cells [2]; 30 min,23.26 ± 1.59 % ID/1 million cells
same,"cell uptake, blocked",A549-FAP cells [2]; 30 min,1.31 ± 0.16 % ID/1 million cells
same,cell uptake,A549-FAP cells [2]; 60 min,27.02 ± 2.21 % ID/1 million cells
same,"cell uptake, blocked",A549-FAP cells [2]; 60 min,1.59 ± 0.65 % ID/1 million cells
same,cell uptake,A549-FAP cells [2]; 120 min,32.55 ± 1.42 % ID/1 million cells
same,"cell uptake, blocked",A549-FAP cells [2]; 120 min,1.71 ± 0.23 % ID/1 million cells
same,cell efflux,A549-FAP cells [6],lower cellular efflux
same,cell efflux,22Rv1 cells,lower cellular efflux
same,A549-FAP tumor uptake,[3],6.47 ± 0.76 %ID/g
same,Blood uptake,[3],1.98 ± 0.46 %ID/g
same,Bone uptake,[3],5.53 ± 0.18 %ID/g
same,Brain uptake,[3],0.11 ± 0.03 %ID/g
same,Gall bladder uptake,[3],2.23 ± 1.07 %ID/g
same,Heart uptake,[3],0.84 ± 0.17 %ID/g
same,Kidney uptake,[3],23.10 ± 7.91 %ID/g
same,Liver uptake,[3],0.81 ± 0.22 %ID/g
same,Lung uptake,[3],1.37 ± 0.22 %ID/g
same,Muscle uptake,[3],1.35 ± 0.36 %ID/g
same,Small intestine uptake,[3],0.84 ± 0.33 %ID/g
same,Spleen uptake,[3],0.51 ± 0.16 %ID/g
same,Stomach uptake,[3],0.83 ± 0.42 %ID/g
same,"A549-FAP tumor uptake, Blocked",[3],1.11 ± 0.88 %ID/g
same,"Blood uptake, Blocked",[3],0.57 ± 0.19 %ID/g
same,"Bone uptake, Blocked",[3],3.83 ± 0.02 %ID/g
same,"Brain uptake, Blocked",[3],0.07 ± 0.03 %ID/g
same,"Gall bladder uptake, Blocked",[3],1.39 ± 0.20 %ID/g
same,"Heart uptake, Blocked",[3],0.28 ± 0.07 %ID/g
same,"Kidney uptake, Blocked",[3],26.70 ± 10.80 %ID/g
same,"Liver uptake, Blocked",[3],0.41 ± 0.12 %ID/g
same,"Lung uptake, Blocked",[3],0.90 ± 0.24 %ID/g
same,"Muscle uptake, Blocked",[3],0.85 ± 0.39 %ID/g
same,"Small intestine uptake, Blocked",[3],0.55 ± 0.29 %ID/g
same,"Spleen uptake, Blocked",[3],0.30 ± 0.03 %ID/g
same,"Stomach uptake, Blocked",[3],0.37 ± 0.06 %ID/g
same,22Rv1 tumor* uptake,[4],12.85 ± 2.43 %ID/g
same,Kidney* uptake,[4],27.0 ± 11.9 %ID/g
same,"22Rv1 tumor* uptake, Blocked",[4],6.85 ± 1.53 %ID/g
same,"Kidney* uptake, Blocked",[4],2.94 ± 0.35 %ID/g
same,time–activity curves (micro-PET),[5],"rapid uptake and excellent retention in tumors, as well as rapid clearance from non-target organs via the kidneys"
